Assays:
[1] = target: T1, PYR1 K59R F108E (Arabidopsis thaliana, UniProt O49686, F108E/K59R); assay: Y2H Pocket Library Screen (HAB1, X-gal); type: cell-based
T1 construct: expressed in transfected cells; host or cells: S. cerevisiae Y190 yeast two-hybrid reporter strain
Protocol: (§1) The set of 475 mutant plasmids were individually transformed into the Y190 yeast two hybrid reporter strain co-transformed with pACT-HAB1, as previously described (Park et al., 2009). The yeast strains generated were arrayed into 96-well plates yielding what we refer to as the “pocket library”. The pocket library strains were spotted onto agar plates containing selective synthetic dextrose (minus Leu & Trp) medium that was supplemented with a single test compound at 100 μM. The pocket library strains were separately tested for responsiveness to the following compounds: dichlobenil, benzothiadiazole, mandipropamid, fludioxonil, and benoxacor. After incubating test plates at 30° C. for two days, colonies were chloroform lysed and stained to reveal β-galactosidase expression levels, using previously described methods (Park et al., 2009). Mutants displaying responsiveness to the test compound, if present, were identified by virtue of X-gal staining and then subjected to subsequent optimization efforts. Using this approach we identified mutations that conferred detectable sensitivity to the compounds tested (see entries labeled “Pocket Library Screens” in Table 1).

[2] = target: T2, PYR1 K59R F159I (Arabidopsis thaliana, UniProt O49686, F159I/K59R); assay: Y2H Pocket Library Screen (HAB1, X-gal); type: cell-based
T2 construct: expressed in transfected cells; host or cells: S. cerevisiae Y190 two-hybrid reporter strain
Protocol: as §1

[3] = target: T3, PYR1 K59R F159L (Arabidopsis thaliana, UniProt O49686, F159L/K59R); assay: Y2H Pocket Library Screen (HAB1, X-gal); type: cell-based
T3 construct: expressed in transfected cells; host or cells: S. cerevisiae Y190
Protocol: as §1

[4] = target: T4, PYR1 K59R F159V (Arabidopsis thaliana, UniProt O49686, F159V/K59R); assay: Y2H Pocket Library Screen (HAB1, X-gal); type: cell-based
T4 construct: expressed in transfected cells; host or cells: S. cerevisiae Y190
Protocol: as §1

[5] = tested on: PYR1 Y58H K59R V81I F108A F159L; assay: Y2H Combinatorial Mutagenesis II (HAB1, X-gal); type: cell-based, Arabidopsis
Source text: Both of the above optimization experiments led to the identification of the following mutations that, when introduced one at a time, enhance the mandipropamid sensitivity of PYR1^K59R,F108A,S122G: Y58H, V81C, V81I, V81T, V83L, L87A, F159L, F159M, F159V, A160V and V164I. Given that these each enhance sensitivity on their own, we tested if combinations of these mutations might generate more sensitive receptors. Mutagenic primers for each of the mutations were designed and used simultaneously with the QuickChange Lightning Multi Site-Directed Mutagenesis kit (Agilent, USA) with PYR1^K59R,F108A,S122G template DNA. Individual clones were sequenced to identify bona fide combination mutants, which were transformed into the Y190 pACT-HAB1 yeast strain and assayed for mandipropamid sensitivity. These efforts led to the identification of several improved receptors (“Combinatorial Mutagenesis Screen II”, Table 1), including PYR1^Y58H,K59R,V81I,F108A,S122G,F159L, a hextuple mutant that we have named PYR1^MANDI. Yeast reporter strains expressing this mutant are responsive to mandipropamid concentrations as low as 2 nM (Table 1). Thus, the 5-step mutagenesis protocol we followed led to the construction of a mandipropamid responsive receptor with nanomolar sensitivity.

[6] = tested on: homozygous PYR1^MANDI expressing transgenic plants; assay: thermal imaging of leaf temperature; type: in vivo, Arabidopsis
Protocol: To investigate if the system is sufficient to control ABA responses in vegetative tissues, we generated homozygous transgenic lines for two 35S-driven lines (E15 and E16) and 2 RBCS-driven lines (F29 and F34). These materials were grown along side wild type plants and a previously constructed 35S::GFP-PYR1 over expression line (Park et al., 2009). These plants were grown until three weeks old and then treated with a solution containing either 2 μM mandipropamid and 0.02% Silwet or a mock treatment containing 0.02% Silwet and the mandipropamid carrier solvent (DMSO). 24 hours after treatment, the leaf temperatures were examined using a thermal imaging camera. It is well known that ABA-induced guard cell closure reduces transpiration, which leads to increases in leaf temperatures. […] Since guard cell aperture is the primary determinant of transpiration rates, thermal imaging is a useful way to indirectly infer relative transpiration rates and guard cell aperture at the whole plant level. As is shown in FIG. 3, mandipropamid treatment of homozygous PYR1^MANDI expressing transgenic plants leads to large changes in leaf temperature (˜2° C. increase) within 24 hours of treatment.
Treatment of plants with abscisic acid leads to the induction of CYP707A cytochrome P450s, which hydroxylate ABA at its 8′ methyl group. […] Thus, ABA applications lose effect over time due to metabolic inactivation. Given that mandipropamid is a non-native molecule, it is likely not a degraded by the CYP707A enzyme system. […] Plants were treated with mock, 1, 5 or 20 μM mandipropamid and then analyzed by thermography at 4 hours, 3 and 6 days after treatment. […] Additionally, control and 1 μM treated plants flowered during the experiment while flowering was prevented in the 5 μM and 20 μM treated mandipropamid plants.

T4 sequence (O49686 whole entry K59R/F159V): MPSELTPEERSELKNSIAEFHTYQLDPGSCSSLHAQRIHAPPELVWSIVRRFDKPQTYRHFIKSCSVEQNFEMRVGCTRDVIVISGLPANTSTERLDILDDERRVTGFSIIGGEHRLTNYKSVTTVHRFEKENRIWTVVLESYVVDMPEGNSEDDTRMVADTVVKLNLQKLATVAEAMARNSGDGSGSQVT
T4 sequence (Q9CAJ0 23-511, further chain): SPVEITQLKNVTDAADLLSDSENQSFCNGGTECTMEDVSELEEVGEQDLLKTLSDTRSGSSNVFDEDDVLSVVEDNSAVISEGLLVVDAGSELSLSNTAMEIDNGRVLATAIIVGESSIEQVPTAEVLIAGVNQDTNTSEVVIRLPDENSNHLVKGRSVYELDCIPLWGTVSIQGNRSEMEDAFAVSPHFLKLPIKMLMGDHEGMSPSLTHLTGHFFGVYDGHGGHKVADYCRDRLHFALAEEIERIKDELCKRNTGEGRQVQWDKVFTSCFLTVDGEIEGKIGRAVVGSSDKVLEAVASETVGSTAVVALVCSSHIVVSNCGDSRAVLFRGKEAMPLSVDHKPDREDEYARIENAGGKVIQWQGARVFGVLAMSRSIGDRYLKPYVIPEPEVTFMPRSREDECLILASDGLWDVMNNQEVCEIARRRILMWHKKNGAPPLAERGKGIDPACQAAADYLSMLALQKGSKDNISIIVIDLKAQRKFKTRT
T1 sequence (O49686 whole entry K59R/F108E): as the sequence (O49686 whole entry K59R/F159V) above, with F108E, V159F counted along it
T1 sequence (Q9CAJ0 23-511 partner): as the sequence (Q9CAJ0 23-511, further chain) above
T2 sequence (O49686 whole entry K59R/F159I): as the sequence (O49686 whole entry K59R/F159V) above, with V159I counted along it
T2 sequence (Q9CAJ0 23-511, further chain): as the sequence (Q9CAJ0 23-511, further chain) above
T3 sequence (O49686 whole entry K59R/F159L): as the sequence (O49686 whole entry K59R/F159V) above, with V159L counted along it
T3 sequence (Q9CAJ0 23-511, further chain): as the sequence (Q9CAJ0 23-511, further chain) above

| SMILES | Threshold [1] | Threshold [2] | Threshold [3] | Threshold [4] | Threshold [5] | flowering during the experiment ([6]; 1 μM mandipropamid) | leaf temperature increase ([6]; 2 μM mandipropamid, within 24 hours of treatment) | flowering during the experiment ([6]; 5 μM mandipropamid) | persistence of increased leaf temperature ([6]; 5 μM mandipropamid) | flowering during the experiment ([6]; 20 μM mandipropamid) | persistence of increased leaf temperature ([6]; 20 μM mandipropamid) | time to increased leaf temperature after treatment ([6]; mandipropamid treatment) |
| --- | --- | --- | --- | --- | --- | --- | --- | --- | --- | --- | --- | --- |
| C#CCOc1ccc(CCNC(=O)C(OCC#C)c2ccc(Cl)cc2)cc1OC (stereo not shown) [Mandipropamid, mandipropamid] | 100 µM | 100 µM | 100 µM | 100 µM | 0.01 µM | flowered | ~2 °C | prevented | at least 6 days | prevented | at least 6 days | ≤ 4 h |
| N#Cc1c(Cl)cccc1Cl [Dichlobenil, dichlobenil] | 100 µM | 100 µM | 100 µM | 100 µM |  |  |  |  |  |  |  |  |
